We go through two compounds from paper PMC12736535, “Generation and Characterization of Novel Contilisant+Tubastatin a Multitarget Small Molecules Against Glioblastoma” (Pharmaceutics, 2025).

Read-outs that look alike come from different tables or passages of the source.

One may read the inhibition as how much of the control response was suppressed. By Ki is commonly meant a dissociation constant, usually derived from enzyme kinetics or from competition with a known ligand. High values mean lower affinity, low ones higher affinity. As usually defined, the IC50 is the concentration that gives 50% inhibition.

The target of one assay is BChE (Homo sapiens, UniProt P06276). Kind of assay: BChE inhibition, Ellman's colorimetric method. Type of assay: biochemical. The settings on record: for inhibition at 10 µM: read-out: ChE inhibition BChE %. On the procedure:
The inhibitory capacity of the compounds on ChEs was assessed using Ellman’s colorimetric method. Briefly, an inhibitor solution containing 10 µM of the MSMs and 0.3 mM DTNB was incubated for 20 min with the enzyme solution ([…]) at 37 °C. […] Inhibition percentages were calculated from these values. […] Further, enzyme kinetics were studied using different substrate and inhibitor concentrations. Results were represented in a Lineweaver–Burk plot using GraphPad Prism, and the constant of inhibition (Ki) was estimated from the point at which the line cuts the x-axis in the secondary plot.
(DTNB colorimetry detects thiols as they appear.)

The next assay concerns U87 subcutaneous tumors. The experiment in a line: Subcutaneous U87 tumor growth and tumor immunohistochemistry. Type of assay: in vivo, athymic nude-Foxn1nu mice. The settings on record: 50 mg/kg i.p.; for final tumor volume: 3 days per week for 4 weeks, control ~750; for decrease in the number of Ki67-positive cells (IHC): resected tumors. The protocol:
For carcinogenesis studies, subcutaneous tumor growth experiments were performed via the injection of 5 × 10^5 cells into two bottom flanks of athymic nude-Foxn1^nu mice. Once tumors reached a size of 25–50 mm^3, mice were sorted into different treatment groups based on their gender and tumor size. An external caliper was used for tumor size measurement, and the tumor volume was estimated using the formula V = L·W^2·0.5 (where L is tumor length and W is tumor width). […] Sample size was calculated, taking into account that control groups could have an average size of 700 mm^3 and we wanted to detect a difference of […]. For the cytotoxic experiment, 8 controls and 8 treated animals were used, while for the efficacy experiment 12 control animals and 8 treated animals were used.
Subcutaneous tumors were extracted, fixed with 4% formaldehyde for 48 h and embedded in paraffin. Tumor sections were obtained and stainings for Ki67 (Ab16667, Abcam), acetyl H3 (9649, Cell Signaling) and acetylated α-tubulin (ab179484, Abcam) were performed. A ZEISS Axioscan 7 slide scanner was used to capture images of the stainings, and analyses were performed using Qupath.

Assay [1] relates to GNS166 patient-derived glioma stem cells. Kind of assay: MTT cell viability, GNS166. Format: cell-based. The settings on record: Homo sapiens, 72 h, read-out: IC50 GNS166 (GBM). On the procedure:
(§1) U87-MG, U251-MG and NCI-H1299 cells were purchased from ATCC, while MKN45 was obtained from the Leibniz Institute DSMZ-German Collection of Microorganisms and Cell Cultures and the RWP1 cell line was kindly provided by Dr. Francisco Real. Cells were cultured in DMEM or RPMI (Gibco, Waltham, MA, USA) supplemented with 10% FBS, 100 U/mL penicillin and streptomycin and 2 mM L-Glutamine. Patient-derived glioma neural stem cells (GNS166 and GNS179) were kindly provided by Dr. Steve Pollard. These cells were cultured in adhesion plates treated with laminin A in DMEM/F12 media (Gibco) supplemented with N2 (Gibco), B27 (Gibco), D-(+)-Glucose solution 45% (Sigma-Aldrich, Burlington, MA, USA), basic Fibroblast Growth Factor (Gibco) and epidermal growth factor (Sigma-Aldrich). Normal human astrocytes (NHAs) were purchased from ScienCell and cultured using an astrocyte medium kit (ScienCell, San Diego, CA, USA) supplemented with FBS and Astrocyte Growth Supplement (AGS). All cells were maintained at standard conditions of 37 °C, 95% humidity, 21% O2 and 5% CO2, and cultures were regularly tested for Mycoplasma.
(§2) Cells were seeded in 96-well plates at a density of 1.5 × 10^3 or 5 × 10^3 cells/well (conventional cell lines or GNS and NHAs, respectively) and incubated overnight. […] Then, absorbance at 570 nm was measured. […]

Another assay has as its system U87 glioblastoma cells. The experiment in a line: MTT cell viability, U87. Format: cell-based. The note with it: Homo sapiens, 72 h, read-out: IC50 U87 (GBM). The protocol:
as §1
Cells were seeded in 96-well plates at a density of 1.5 × 10^3 or 5 × 10^3 cells/well (conventional cell lines or GNS and NHAs, respectively) and incubated overnight. Next, cells were treated with increasing concentrations of the compounds, and after 72 h, they were incubated for 3.5 h with MTT. Then, absorbance at 570 nm was measured. GraphPad Prism software version 10.4.1 was used to calculate the IC50 values.

Assay [2] relates to MKN45 gastric cancer cells. The experiment in a line: MTT cell viability, MKN45. Type of assay: cell-based. The note with it: Homo sapiens, MKN-45, 72 h. On the procedure: as §1, §2
Assay [3] relates to RWP1 pancreatic cancer cells. Kind of assay: MTT cell viability, RWP1. Format: cell-based. The settings on record: Homo sapiens, 72 h. The protocol:
as §1, §2

A further assay addresses T1, recombinant hMAO-A (Homo sapiens, UniProt P21397).
T1 sequence (P21397 1-527): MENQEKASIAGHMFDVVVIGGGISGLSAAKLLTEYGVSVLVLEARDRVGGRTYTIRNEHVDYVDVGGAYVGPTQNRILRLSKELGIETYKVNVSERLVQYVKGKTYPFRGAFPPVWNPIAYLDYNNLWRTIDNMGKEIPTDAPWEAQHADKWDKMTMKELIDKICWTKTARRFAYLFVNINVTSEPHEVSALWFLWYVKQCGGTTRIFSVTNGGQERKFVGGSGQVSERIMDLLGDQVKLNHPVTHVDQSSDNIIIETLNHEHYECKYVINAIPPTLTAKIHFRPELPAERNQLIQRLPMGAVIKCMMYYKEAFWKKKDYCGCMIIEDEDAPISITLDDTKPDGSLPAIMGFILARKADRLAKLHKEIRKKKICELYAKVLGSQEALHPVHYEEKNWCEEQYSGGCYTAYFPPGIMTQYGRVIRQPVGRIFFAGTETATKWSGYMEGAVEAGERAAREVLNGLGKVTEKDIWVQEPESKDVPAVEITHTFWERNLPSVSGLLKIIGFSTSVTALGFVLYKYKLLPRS
The experiment in a line: MAO-A inhibition assay. The note with it: increasing concentrations of inhibitor. Format: biochemical. On the procedure:
For MAO inhibition studies, the enzyme solution (0.5 U/mL recombinant hMAO-A or 1.5 U/mL recombinant hMAO-B) was incubated with an inhibitor solution containing 10 µM of the compounds for 30 min at 37 °C. Next, horseradish peroxidase (200 U/mL), Ampliflu Red (20 mM) and tyramine hydrochloride (100 mM) (Sigma-Aldrich) were added, and absorbance was measured at 570 nm every 5 min for 30 min. The percentage of inhibition was calculated from the absorbance values.

Chain of BChE (P06276 29-602, species assumed): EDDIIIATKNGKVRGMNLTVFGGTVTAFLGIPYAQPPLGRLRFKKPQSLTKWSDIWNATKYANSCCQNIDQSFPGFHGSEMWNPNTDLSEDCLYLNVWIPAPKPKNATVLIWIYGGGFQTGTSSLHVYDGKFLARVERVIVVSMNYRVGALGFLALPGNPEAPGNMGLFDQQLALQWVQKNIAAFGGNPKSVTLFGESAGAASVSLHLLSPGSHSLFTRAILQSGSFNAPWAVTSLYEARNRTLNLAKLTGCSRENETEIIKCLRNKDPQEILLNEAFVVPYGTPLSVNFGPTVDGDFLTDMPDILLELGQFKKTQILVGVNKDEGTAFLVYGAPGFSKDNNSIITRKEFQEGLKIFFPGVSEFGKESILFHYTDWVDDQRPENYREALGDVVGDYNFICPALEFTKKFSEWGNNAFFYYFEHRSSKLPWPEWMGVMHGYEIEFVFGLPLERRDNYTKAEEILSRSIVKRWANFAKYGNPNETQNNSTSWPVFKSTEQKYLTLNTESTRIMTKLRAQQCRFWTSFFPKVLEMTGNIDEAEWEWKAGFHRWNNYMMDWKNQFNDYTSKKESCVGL

With `CCCNNC(=O)c1ccc(S(=O)(=O)n2ccc3cc(OCCCN4CCCCC4)ccc32)cc1` [FRB44], the Type of inhibition entry on BChE is “Mixed”; on BChE (BChE, Lineweaver-Burk plot), “mixed inhibition”. Also, the “ChE inhibition BChE %” value on BChE (10 μM) was 70%. Besides, the inhibition at 10 µM at BChE (10 μM) stood at 71%. At BChE (BChE, secondary plot of Lineweaver-Burk slopes), this compound displayed a Ki of 1360 nM. Besides, the IC50 on BChE (increasing concentrations of inhibitor) was 8240 nM; in assay [1] it was 15000 nM; in the assay with U87 glioblastoma cells it was about 1500 nM; in assay [2], 4100 nM; in assay [3] it was 700 nM. Further, the “final tumor weight, lower compared to controls” value in the assay with U87 subcutaneous tumors is reported as 62.5%. The final tumor volume in the assay on U87 subcutaneous tumors is on record as ~ 325 mm^3. In addition, in the assay with U87 subcutaneous tumors, the “decrease in the number of Ki67-positive cells (IHC)” value is “around 30%”.
Turning to `C#CCN1CCN(CCCOc2ccc3c(ccn3S(=O)(=O)c3ccc(C(=O)NNCCC)cc3)c2)CC1` [FRB56], the inhibition at 10 µM at BChE (10 μM) came to 15%. In the assay on U87 subcutaneous tumors, the “final tumor weight, lower compared to controls” value came out at 61.4%; the final tumor volume is listed as ~ 280 mm^3; the “decrease in the number of Ki67-positive cells (IHC)” value is listed as “around 30%”. Further, in assay [1], the 50% inhibitory concentration (IC50) came out at 13700 nM. Also, the half-maximal inhibitory concentration (IC50) in the assay with U87 glioblastoma cells is about 1500 nM. Moreover, the IC50 at recombinant hMAO-A was determined as 1680 nM.
